What was measured:
[1] = Six-week double-blind clinical evaluation for the treatment of red and brown pigmented skin; type: in vivo, human; settings: 0.5% in vehicle, twice a day to facial area for 6 weeks; expert grading of Canfield VISIA-CR RBX images; women ages 40-70
Method: A six-week double-blind clinical evaluation was performed, comparing a control vehicle to idebenone dipalmitoyl glycerate for the treatment of red and brown pigmented skin. Approximately 36 women, ages 40-70 with moderate hyperpigmentation and reddening of the skin were selected to participate in the study. Subjects were randomly assigned to one of three groups. Group I received a product with no idebenone active ingredient (vehicle), Group II received the same vehicle with 0.5% Idebenone (Hydroxydecyl Ubiquinone) added, and Group III received the same vehicle with 0.5% of Idebenone Dipalmitoyl Glycerate added. Subjects were instructed to apply the product twice a day (morning and evening) to the facial area for 6 weeks. Canfield VISIA-CR RBX images were made at baseline and after 6 weeks use and analyzed. Digital and UV photographs were also taken, standardizing distance and positioning of the subjects, pre and post product application.

[2] = Maximization Test (repeat insult patch test) for contact-sensitizing potential; type: in vivo, human; settings: Vehicle+1% test substance, occlusive patch, 5 induction exposures with SLS pre-treatment, single challenge; graded 48 or 72 hours after application of challenge patches; healthy adult volunteers
Method: A study was performed to evaluate the contact-sensitizing potential of a topical Facial Cream containing idebenone dipalmitoyl glycerate (Vehicle+1% idebenone dipalmitoyl glycerate) using the Maximization Test. The test was a repeat insult patch test wherein the test material was applied under an occlusive dressing to the upper outer arm, volar forearm or back repeatedly to the same site for five 48-hour induction periods, followed 10-14 days later by a single challenge to a naive skin site. The test sample was coded Cream A and tested as supplied viz. neat. All test materials were stored under ambient conditions in an inaccessible location under the supervision of the investigator.
The test subjects were all healthy, adult volunteers over the age of 18 years. […]

Compound | subjects responded with a decrease in brown pigmentation [1] | subjects responded with less redness [1] | subjects with contact allergy / positive reaction (recordable level of skin sensitization) after challenge [2]
COC1=C(OC)C(=O)C(CCCCCCCCCCO)=C(C)C1=O [idebenone, 6-(10-hydroxydecyl)-2,3-dimethoxy-5-methyl-1,4-benzoquinone] | 67% | 58% | 
COC1=C(OC)C(=O)C(CCCCCCCCCCOP(=O)(O)O)=C(C)C1=O [idebenone phosphate ester] |  |  | Four subjects exhibited positive reactions
3-oxo-3-(9-(2,4,5-trimethyl-3,6-dioxocyclohexa-1,4-dienyl)monyloxy)propane-1,2-diyl dipalmitate [idebenone dipalmitoyl glycerate] | 75% | 58% | 

Source: patent US9290436B2, “Compositions containing carboxylic acid-substituted derivatives” (Elizabeth Arden, Inc., priority 2008, dated 2016)
